11 compounds from patent US20230150951A1, “2,5- OR 2,6-DISUBSTITUTED HYDROQUINONE DERIVATIVES WITH AT LEAST ONE CARBOXY, SULFO OR AMIDO GROUP USEFUL AS MEDICAMENTS” (OM PHARMA SA, priority 2020, published 2023) can be followed below.

Each structure is given as a SMILES string.

Holding throughout (type): cell-based
Test [1] has as its system Human neutrophils. The test can be described thus: Neutrophil adhesion under static conditions. Conditions: fMLP-stimulated adhesion to fibrinogen; method: 40 μM and 80 μM, concentration of the value not stated. The method, then:
Human neutrophils obtained from buffy coats of healthy donors were suspended at 3×10^6/ml in adhesion buffer (PBS containing 1 mM CaCl2)/MgCl2 and 10% FCS, pH 7.2). Neutrophils were preincubated for 30 min at 37° C. with 40 μM and 80 μM of the compounds.
Adhesion assays were performed on 18-well glass slides coated for 18 h at 4° C. with human fibrinogen (20 μg/well in endotoxin-free PBS); 20 μl of cell suspension were added to each well and stimulated for 1 min at 37° C. with 5 μl of fMLP 1 nM final concentration. After washing, adherent cells were fixed in glutaraldehyde 1.5% in PBS and counted by computer-assisted enumeration. Statistical analysis was performed by calculating mean and standard deviation (SD); significance was calculated by unpaired t-test. All statistical analyses were performed using GraphPad Prism 6 (GraphPad Software).

For a further test, the target named is T1, FGF-1 (Homo sapiens, UniProt P05230).
T1 construct: purchased Peprotech 100-17A
T1 sequence (P05230 whole entry): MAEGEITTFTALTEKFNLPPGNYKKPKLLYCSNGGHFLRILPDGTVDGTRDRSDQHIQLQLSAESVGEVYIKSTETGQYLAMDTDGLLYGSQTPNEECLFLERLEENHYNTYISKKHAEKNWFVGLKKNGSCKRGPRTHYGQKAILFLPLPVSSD
The test can be described thus: FGF-1 induced sprouting of HUVEC, spheroid-based cellular angiogenesis assay. To be noted: FGF-1 25 ng/mL preincubated with compound, 24 h. The method, then:
(§1) Aim of this in vitro method is to assess compounds effects on FGF-2, FGF-1, or VEGF-A induced sprouting of human umbilical vein endothelial cells (HUVEC) in the spheroid-based cellular angiogenesis assay. Before adding the growth factors to the cells, they were preincubated with the compound. Sunitinib was tested as a control (without preincubation).
(§2) IC50 values determined for the tested compounds are expressed in microM [μM] and the values for the inhibition of FGF-1, FGF2 and VEGF-A induced growth (sprouting) are listed after each compound in the examples after chemical characterization.
(§3) Sprouting test was performed on the compounds dissolved in DMSO to reach 100-fold concentrated stock solutions and dissolved in culture media. Sunitinib as reference compound was provided by ProQinase GmbH. Growth factors were purchased from rhFGF-basic (FGF-2), Peprotech, New Jersey, USA, #100-18C, Lot #0415571; rhFGF-acidic (FGF-1), Peprotech, New Jersey, USA, #100-17A, Lot #031207; hVEGF-A165 (ProQinase GmbH, Freiburg, Germany; 05.02.2010) were used for stimulation of HUVEC cells growth.
(§4) Test system: Endothelial cells from human umbilical vein (HUVEC) from pooled donors were stored frozen with 70% medium, 20% FCS, 10% DMSO at about 1×10^6 cells/ampoule. HUVEC cells, primary human umbilical vein endothelial cells (PromoCell, Heidelberg, Germany), were used after passage 3 to 4. Morphology of the cells are adherent, cobblestone-like growing as monolayer and were cultured in endothelial cell growth and basal medium (ECGM/ECBM, PromoCell). The subculture was split 1:3; every 3-5 days, seed out at ca. 1×10^4 cells/cm^2 and incubated at 37° C. with 5% CO2 with a doubling time 24-48 hours
(§5) Dilution of test compounds: 100× concentrated solutions (concerning to the final assay concentrations) of each test compound were prepared with the appropriate solvent (in DMSO or in water). These 100×compound solutions were further diluted in endothelial cell growth and basal medium (ECBM) 1:7.5 to get a 13.33× concentrated solution. 75 μl of the 13.33×solution was subsequently mixed with 25 μl of 40× concentrated stimulus (solved in ECBM), resulting in a 10×concentrated stimulus/compound mixture. This mixture (100 μl) was incubated for 30 min at 37° C. and then added to 900 μl gel, containing the HUVEC spheroids (resulting in the final assay concentration).
(§6) Test method: the experiments were pursued in modification of the originally published protocol (Korff and Augustin: J Cell Sci 112: 3249-58, 1999). In brief, spheroids were prepared as described (Korff and Augustin: J Cell Biol 143: 1341-52, 1998) by pipetting 400 HUVEC in a hanging drop on plastic dishes to allow overnight spheroid aggregation. 50 HUVEC spheroids were then seeded in 0.9 ml of a collagen gel and pipetted into individual wells of a 24 well plate to allow polymerization. The test compounds were preincubated with the growth factors (FGF-1, FGF-2 or VEGF-A final concentration 25 ng/mL) in a 10-fold concentrated solution and subsequently, 100 μl of this solution was added on top of the polymerized gel. All compounds were diluted in solvent (DMSO or water) as 100×stocks first (which means 100×stocks of each final assay concentration were prepared in solvent). Subsequently, these stocks were further diluted in medium (resulting in the 13.33×stocks of each final assay concentration) with final concentrations tested: 100, 50, 25, 12.5, 6.25, 3.13 and 1.56×10^−6 M). Plates were incubated at 37° C. for 24 hours and fixed by adding 4% PFA (Roth, Karlsruhe, Germany).
(§7) Quantification of growth factor inhibition: sprouting intensity of HUVEC spheroids treated with the growth factor and the inhibitors were quantitated by an image analysis system determining the cumulative sprout length per spheroid (CSL).

In the next test the target is T2, VEGFR-2 (Homo sapiens, UniProt P35968).
T2 construct: endogenous in cells; host or cells: primary HUVEC
T2 sequence (P35968 20-1356): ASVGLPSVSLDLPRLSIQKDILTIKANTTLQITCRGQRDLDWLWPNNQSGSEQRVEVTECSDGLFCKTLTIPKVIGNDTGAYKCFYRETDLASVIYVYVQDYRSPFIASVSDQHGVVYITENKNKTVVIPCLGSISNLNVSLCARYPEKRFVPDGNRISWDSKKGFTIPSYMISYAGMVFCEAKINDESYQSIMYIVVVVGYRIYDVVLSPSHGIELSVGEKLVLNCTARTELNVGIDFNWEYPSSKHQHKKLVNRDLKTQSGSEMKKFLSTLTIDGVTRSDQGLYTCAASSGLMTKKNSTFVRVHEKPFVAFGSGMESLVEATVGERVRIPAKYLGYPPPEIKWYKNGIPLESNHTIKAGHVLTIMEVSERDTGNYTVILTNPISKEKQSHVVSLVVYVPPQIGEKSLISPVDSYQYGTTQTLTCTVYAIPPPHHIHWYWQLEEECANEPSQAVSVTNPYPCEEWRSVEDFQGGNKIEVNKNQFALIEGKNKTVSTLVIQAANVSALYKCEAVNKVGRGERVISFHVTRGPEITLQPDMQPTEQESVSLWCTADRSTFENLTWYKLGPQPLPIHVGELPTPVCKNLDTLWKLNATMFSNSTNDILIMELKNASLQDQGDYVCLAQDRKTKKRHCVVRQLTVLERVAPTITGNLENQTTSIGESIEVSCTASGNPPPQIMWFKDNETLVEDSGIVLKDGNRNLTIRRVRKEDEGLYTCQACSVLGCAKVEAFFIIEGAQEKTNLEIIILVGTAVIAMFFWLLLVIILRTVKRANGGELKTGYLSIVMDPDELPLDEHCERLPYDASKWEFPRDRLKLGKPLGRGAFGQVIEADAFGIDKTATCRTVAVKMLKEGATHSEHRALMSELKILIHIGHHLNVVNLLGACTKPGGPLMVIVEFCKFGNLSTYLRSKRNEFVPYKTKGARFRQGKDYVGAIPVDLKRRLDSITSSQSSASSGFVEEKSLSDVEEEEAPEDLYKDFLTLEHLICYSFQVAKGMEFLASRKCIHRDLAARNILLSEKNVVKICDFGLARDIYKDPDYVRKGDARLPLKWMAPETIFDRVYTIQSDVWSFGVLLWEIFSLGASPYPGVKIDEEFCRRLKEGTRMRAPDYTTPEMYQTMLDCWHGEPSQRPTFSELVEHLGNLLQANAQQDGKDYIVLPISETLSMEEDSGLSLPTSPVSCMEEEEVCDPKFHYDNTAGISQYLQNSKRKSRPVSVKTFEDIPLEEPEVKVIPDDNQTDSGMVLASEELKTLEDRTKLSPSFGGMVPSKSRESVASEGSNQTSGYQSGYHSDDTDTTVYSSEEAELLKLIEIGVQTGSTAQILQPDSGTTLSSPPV
The test can be described thus: VEGF-165 induced phosphorylation of VEGF-Receptor on HUVEC. Conditions: HUVEC preincubated 60 min, VEGF165 25 ng/mL 2 min; read-out: VEGFR-Phosphorylation inhibition IC50. The method, then: Cell culture: Primary human umbilical vein endothelial cells (HUVECs) were routinely cultured in 0.1% gelatin pre-coated flasks or dishes, up to passage 6. […]
Rabbit primary antibodies for VEGFR-2, p-Tyr1175 were acquired from Cell Signaling Technology (Leiden, The Netherlands). Phospho-VEGFR-2 (Tyr1175) Sandwich ELISA Kit was from Cell Signaling Technology.
[…] Western blot analysis was performed using anti-phospho-VEGFR-2 antibody and total VEGFR-2 was used as a loading control after membrane stripping.
Inhibition of VEGFR-2-phosphorylation results are expressed as IC50 in microM [μM] versus VEGF-treated HUVECs control without inhibitory compound.

The next test has as its target T3, FGF-2 (Homo sapiens, UniProt P09038).
T3 construct: purchased Peprotech 100-18C
The test can be described thus: FGF-2 induced sprouting of HUVEC, spheroid-based cellular angiogenesis assay. To be noted: FGF-2 25 ng/mL preincubated with compound, 24 h. The method, then:
as §1, §2, §3, §4, §5, §6, §7

The test system of test [2] is Human neutrophils. Put plainly: Inhibition of ROS production in human neutrophils (isoluminol chemiluminescence). Conditions: Homo sapiens, Neutrophil, fMLP+TNF-α stimulated PMN. The text has this:
NADPH oxidase, located in the plasma membrane and in the membranes of specific granules, produces superoxide anions from which other ROS, such as hydrogen peroxide, singlet oxygen, hypochlorite, and active hydroxyl radicals. ROS are released into the surrounding medium or into a membrane-enclosed subcellular organelle. One quick and sensitive method for measuring the generation of these metabolites is chemiluminescence (CL). Isoluminol amplified CL technique, is very sensitive and widely used to study respiratory burst (mainly extracellular production of ROS) induced in neutrophils.
Human neutrophils were isolated from buffy coats which obtained from healthy donors. The isolated neutrophils (3×10^6/ml) were suspended in Hanks' Balanced Salt Solution (HBSS) with Calcium and Magnesium. Neutrophils were pre-incubated with the compounds at different concentrations (0.1, 0.3, 1, 3 and 10 μM) for 30 min at 37° C. The black 96-well cell culture plates were coated with human fibrinogen (0.25 mg/ml in PBS), and incubated overnight at 4° C. or 2 hr at 37° C. Then the plates were washed with endotoxin-free PBS. The neutrophils were incubated (priming) with TNF-α (20 ng/ml) for 10 minutes at 37° C. Thereupon the 75 μl of cell suspension and 75 μl (Isoluminol+HRP solution) were added to each well. The chemiluminescence was recorded (every 25 sec for 250 sec) after fMLP (1 μM) activation using a Multilabel Reader victor3 (Perkin Elmer, USA). Background values, defined as the mean chemiluminescent values of isoluminol diluted in HBSS, were subtracted from all readings (CPS, count per second). The assays were done in duplicate or triplicate.

T3 sequence (P09038 134-288): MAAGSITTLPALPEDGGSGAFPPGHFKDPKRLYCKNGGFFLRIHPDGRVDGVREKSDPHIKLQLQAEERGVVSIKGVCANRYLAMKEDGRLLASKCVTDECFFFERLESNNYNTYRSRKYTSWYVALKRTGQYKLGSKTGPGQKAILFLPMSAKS

For `O=C(O)c1cc(O)c(CS(=O)(=O)Cc2cc(O)c(C(=O)O)cc2O)cc1O` [IIIc-059a, 4-((2,5-Dihydroxy-4-carboxyphenyl)methylsulfonylmethyl)-2,5-dihydroxybenzoic acid], in the test with Human neutrophils [1], the Neutrophil adhesion inhibition is 14.67%. Besides, the 50% inhibitory concentration (IC50) – broadly, the concentration needed to halve the response being measured – at FGF-1 worked out at 47 µM; at VEGFR-2, 3.61 µM; on FGF-2, 50 µM; in the test with Human neutrophils [2], 1 µM. Testing at 0.3 µM in the test on Human neutrophils [2] gave an inhibition of 66.4%.

In turn, `O=C(O)c1ccc(NC(=O)c2cc(O)cc(C(=O)O)c2O)cc1` [IIa-003a, 3-(4-carboxyphenylaminocarbonyl)-2,5-dihydroxybenzoic acid] yielded a Neutrophil adhesion inhibition in the test with Human neutrophils [1] of 35.27%. The IC50 on FGF-1 is 22 µM; at VEGFR-2 it was 2.5 µM; at FGF-2, 13 µM. Further, the inhibition – broadly, the change of the read-out against control, counted positive when it falls – at 0.3 µM in the test with Human neutrophils [2] is 59.3%.

Take `O=C(O)Cc1cccc(NC(=O)c2cc(O)c(C(=O)O)cc2O)c1` [Ia-033a, 4-(3-(carboxymethyl)phenylaminocarbonyl)-2,5-dihydroxybenzoic acid]: in the test on Human neutrophils [1], the Neutrophil adhesion inhibition is listed as 38%. The half-inhibitory concentration (IC50) at FGF-1 was 60 µM; at VEGFR-2, at least 100 µM; at FGF-2, 165 µM; in the test on Human neutrophils [2], 1.32 µM. This compound returned an inhibition at 0.3 µM in the test with Human neutrophils [2] of 57.7%.

For the compound `O=C(O)c1ccccc1NC(=O)c1cc(O)cc(C(=O)O)c1O` [IIa-001a, 3-(2-carboxyphenylaminocarbonyl)-2,5-dihydroxybenzoic acid], in the test with Human neutrophils [1], the Neutrophil adhesion inhibition is given as 36.24%. Besides, the IC50 on FGF-1 is 8.6 µM; on VEGFR-2, at least 100 µM; on FGF-2, 11 µM; with Human neutrophils [2], 0.408 µM. Further, the inhibition at 0.3 µM with Human neutrophils [2] stood at 30.5%.

Regarding `O=C(O)c1cc(O)cc(C(=O)Nc2cccc(C(=O)O)c2C(=O)O)c1O` [IIa-011a, 3-(3-carboxy-2,5-dihydroxybenzamido)phthalic acid], the Neutrophil adhesion inhibition in the test with Human neutrophils [1] is reported as 26%. In addition, the IC50 is 141 µM at FGF-1, at least 100 µM on VEGFR-2, 123 µM at FGF-2 and 1.18 µM in the test with Human neutrophils [2]. The same compound showed an inhibition at 0.3 µM with Human neutrophils [2] of 58.1%.

Take `O=C(O)Cc1cccc(NC(=O)c2cc(O)cc(C(=O)O)c2O)c1` [IIa-033a, 3-(3-(carboxymethyl)phenylaminocarbonyl)-2,5-dihydroxybenzoic acid]: the Neutrophil adhesion inhibition with Human neutrophils [1] is given as 11.75%. Besides, the IC50 came to 35 µM at FGF-1, 4.9 µM on VEGFR-2, 32 µM on FGF-2 and 0.914 µM in the test with Human neutrophils [2]. Also, 0.3 µM produced 50.6% inhibition with Human neutrophils [2].

As for `COC(=O)c1cc(NC(=O)c2cc(O)c(C(=O)Nc3ccc(O)c(C(=O)OC)c3)cc2O)ccc1O` [Ic-007a-E2, methyl 5-(2,5-dihydroxy-4-(4-hydroxy-3-(methoxycarbonyl)phenylaminocarbonyl)benzamido)-2-hydroxybenzoate], the Neutrophil adhesion inhibition in the test with Human neutrophils [1] is listed as 2%. The 50% inhibitory concentration (IC50) amounted to 23 µM on FGF-1, 0.25 µM on VEGFR-2, 49 µM at FGF-2 and 7.9 µM in the test on Human neutrophils [2]. The same compound showed an inhibition at 0.3 µM in the test with Human neutrophils [2] of 21.3%.

In the test with Human neutrophils [1], `COC(=O)c1cc(O)ccc1NC(=O)c1cc(O)c(C(=O)Nc2ccc(O)cc2C(=O)OC)cc1O` [Ic-009a-E2, methyl 2-(2,5-dihydroxy-4-(4-hydroxy-2-(methoxycarbonyl)phenylaminocarbonyl)benzamido)-5-hydroxybenzoate] showed a Neutrophil adhesion inhibition of 41.05%. Besides, the IC50 on FGF-1 came out at 23 µM; at VEGFR-2, 0.02 µM; on FGF-2, 30 µM. This compound displayed an inhibition at 0.3 µM in the test with Human neutrophils [2] of 24.1%.

As for `O=C(O)c1cc(O)c(C(=O)Nc2cccc(S(=O)(=O)O)c2)cc1O` [Ia-002c, 2,5-dihydroxy-4-(3-sulfophenylaminocarbonyl)benzoic acid], the Neutrophil adhesion inhibition with Human neutrophils [1] is recorded as 1.87%. Further, the IC50 at FGF-1 was 14 µM; on VEGFR-2 it was at least 100 µM; with Human neutrophils [2], 0.405 µM. In the test with Human neutrophils [2], this compound came in with an inhibition at 0.3 µM of 38.9%.

In the case of `CCOC(=O)c1cc(O)cc(C(=O)Nc2ccccc2-c2nnn[nH]2)c1O` [IIa-001aTz-E1, ethyl 3-(2-(1H-tetrazol-5-yl)phenylaminocarbonyl)-2,5-dihydroxybenzoate], the Neutrophil adhesion inhibition in the test on Human neutrophils [1] is 81.94%. Besides, the results for the IC50 at FGF-1, on VEGFR-2 and at FGF-2 were at least 200 µM, at least 100 µM and 42 µM, respectively. In the test with Human neutrophils [2], this compound displayed an inhibition at 0.3 µM of 68.9%.

In the test with Human neutrophils [1], `CCOC(=O)Cc1cc(O)c(C(=O)Nc2ccccc2-c2nnn[nH]2)cc1O` [IIIa-001aTz-E1, ethyl (4-(2-(1H-tetrazol-5-yl)phenylaminocarbonyl)-2,5-dihydroxyphenyl)acetate] had a Neutrophil adhesion inhibition of 91.76%. The half-inhibitory concentration (IC50) is at least 200 µM at FGF-1 and 0.32 µM on VEGFR-2. This compound also returned an inhibition at 0.3 µM in the test with Human neutrophils [2] of 70%.
